Assay results published in ChEMBL document CHEMBL1201862, “PubChem BioAssay data set” (2004).
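In this assay, cells in 96-well plates receive the compound at five concentrations for 48 hours. Endpoints are linearly interpolated between the surrounding concentrations. At the GI50, growth is halved.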 The source made the active and inactive calls. No stated cut-off is given here; in the data, active = GI50 up to about 1.1 µM and inactive = higher.

Key:
Experiment in all cases: NCI tumour cell line growth inhibition, 48 h
[1] = system: U-251
[2] = system: A498
[3] = system: SN12C
[4] = system: SF-539
[5] = system: NCI-H460
[6] = system: 786-0
[7] = system: SK-MEL-28
[8] = system: NCI-H226
[9] = system: KM12
[10] = system: M14
[11] = system: HT-29
[12] = system: DMS-114
[13] = system: OVCAR-4
[14] = system: LXFL 529
[15] = system: NCI-H23
[16] = system: KM-20L2
[17] = system: HCC 2998
[18] = system: SNB-19
[19] = system: Malme-3M
[20] = system: IGROV-1
[21] = system: SR
[22] = system: SF-295
[23] = system: OVCAR-5
[24] = system: SW-620
[25] = system: SK-MEL-5
[26] = system: A549
[27] = system: UACC-257
[28] = system: HOP-92
[29] = system: RXF 393
[30] = system: LOX IMVI
[31] = system: SK-MEL-2
[32] = system: HCT-116
[33] = system: SF-268
[34] = system: EKVX
[35] = system: UO-31
[36] = system: SNB-75
[37] = system: TK-10
[38] = system: UACC-62
[39] = system: CAKI-1
[40] = system: CCRF-CEM
[41] = system: DLD-1
[42] = system: K562
[43] = system: HCT-15
[44] = system: ACHN
[45] = system: OVCAR-8
[46] = system: SK-OV-3
[47] = system: RPMI-8226
[48] = system: MOLT-4
[49] = system: DMS-273
[50] = system: HL-60
[51] = system: M19-MEL
[52] = system: NCI-H522
[53] = system: OVCAR-3

COC(=O)/C(=C/c1ccc(OC)cc1)NC(=O)c1ccccc1 was tested, and the GI50 [1] was > 100 µM (inactive), the GI50 [2] was > 100 µM (inactive) and the GI50 [3] was > 100 µM (inactive). The GI50 [4] was > 100 µM (inactive), the GI50 [5] was > 100 µM (inactive) and the GI50 [6] was > 100 µM (inactive). For the same compound, the GI50 [7] was > 100 µM (inactive), the GI50 [8] was > 100 µM (inactive) and the GI50 [9] was > 100 µM (inactive). For the same compound, the GI50 [10] was > 100 µM (inactive), the GI50 [11] was > 100 µM (inactive) and the GI50 [12] was > 100 µM (inactive). For the same compound, the GI50 [13] was > 100 µM (inactive), the GI50 [14] was > 100 µM (inactive) and the GI50 [15] was > 100 µM (inactive). The GI50 [16] was > 100 µM (inactive), the GI50 [17] was > 100 µM (inactive) and the GI50 [18] was > 100 µM (inactive). For the same compound, the GI50 [19] was > 100 µM (inactive), the GI50 [20] was > 100 µM (inactive) and the GI50 [21] was > 100 µM (inactive). For the same compound, the GI50 [22] was > 100 µM (inactive), the GI50 [23] was > 100 µM (inactive) and the GI50 [24] was > 100 µM (inactive). The GI50 [25] was > 100 µM (inactive), the GI50 [26] was > 100 µM (inactive) and the GI50 [27] was > 100 µM (inactive). For the same compound, the GI50 [28] was > 100 µM (inactive), the GI50 [29] was > 100 µM (inactive) and the GI50 [30] was > 100 µM (inactive). For the same compound, the GI50 [31] was > 100 µM (inactive), the GI50 [32] was > 100 µM (inactive) and the GI50 [33] was > 100 µM (inactive). The GI50 [34] was > 100 µM (inactive), the GI50 [35] was > 100 µM (inactive) and the GI50 [36] was > 100 µM (inactive). For the same compound, the GI50 [37] was > 100 µM (inactive), the GI50 [38] was > 100 µM (inactive) and the GI50 [39] was > 100 µM (inactive). For the same compound, the GI50 [40] was 2 µM (inactive), the GI50 [41] was > 100 µM (inactive) and the GI50 [42] was > 100 µM (inactive). For the same compound, the GI50 [43] was greater than 100 µM, the GI50 [44] was > 100 µM (inactive) and the GI50 [45] was > 100 µM (inactive). The GI50 [46] was > 100 µM (inactive) and the GI50 [47] was > 100 µM (inactive).
For COc1cc([C@@H]2c3cc4c(cc3[C@@H](NCCCN(C)C)[C@H]3COC(=O)[C@H]23)OCO4)cc(OC)c1O, the GI50 [1] was 0.223 µM (active), the GI50 [4] was 0.399 µM (active) and the GI50 [5] was 0.0252 µM (active). For the same compound, the GI50 [48] was 0.0436 µM (active), the GI50 [49] was 0.141 µM (active) and the GI50 [9] was 0.632 µM (active). The GI50 [11] was 1.62 µM (inactive), the GI50 [16] was 0.834 µM (active) and the GI50 [17] was 0.51 µM (active). The GI50 [18] was 0.376 µM (active), the GI50 [19] was 0.242 µM (active) and the GI50 [20] was 0.337 µM (active). For the same compound, the GI50 [22] was 0.17 µM (active), the GI50 [23] was 1.34 µM (inactive) and the GI50 [24] was 0.381 µM (active). The GI50 [25] was 0.264 µM (active), the GI50 [50] was 0.0447 µM (active) and the GI50 [30] was 0.359 µM (active). For the same compound, the GI50 [51] was 0.569 µM (active), the GI50 [34] was 0.526 µM (active) and the GI50 [35] was 0.44 µM (active). The GI50 [52] was 0.525 µM (active), the GI50 [53] was 0.729 µM (active) and the GI50 [40] was 0.0785 µM (active). For the same compound, the GI50 [43] was 0.847 µM, the GI50 [44] was 0.11 µM (active) and the GI50 [46] was 0.248 µM (active). The GI50 [47] was 0.48 µM (active).
